Assay results: patent publication US20110319392A1, “Thiazole Sulfonamide And Oxazole Sulfonamide Kinase Inhibitors” (priority 2009, published 2011)

Assays:
ErbB2 = target: T1, ErbB2 (Homo sapiens, UniProt P04626); experiment: ErbB-2 substrate phosphorylation assay (HTRF); type: biochemical
T1 construct: made in house; host or cells: baculovirus expression system
Outline: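 Baculovirus-expressed EGFR (0.8 nM) or ErbB2 (10 nM) in enzyme mix, preincubated 1 h at 20 °C with compound (0.00027–47.6 μM final), then 90 min at 20 °C with substrate mix of 20 μM ATP, 0.8 uM biotinylated Peptide C, MnCl2, MOPS pH 7.5. Phosphotyrosine by HTRF; pIC50 reported.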

SK-MEL-28 tumor cells = experiment: Cell growth inhibition assay (CellTiter-Glo), SK-MEL-28; type: cell-based, Human; details: Homo sapiens, SK-MEL-28, 72 h; 3 days incubation
Outline: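 Readout was CellTiter-Glo luminescence (total ATP, surrogate for cell number) after 3-day exposure at 37° C, 5% CO2 to 1:3 serial compound dilutions in 0.2% final DMSO. Seeding was 500 cells/well; IC50 derived by 4-parameter fit relative to vehicle-treated wells.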

SK-MEL-3 tumor cells = experiment: Cell growth inhibition assay (CellTiter-Glo), SK-MEL-3; type: cell-based, Human; details: Homo sapiens, SK-MEL3
Outline: (§1)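 Cells seeded at 500/well (HN5 and HT-29 in high-glucose DMEM/10% FBS; A375P F11s in RPMI/10% FBS with pyruvate; SK-MEL-3 in McCoy's 5A/15% FBS), then exposed next day to 1:3 serial compound dilutions (0.2% DMSO) for 3 days at 37° C. CellTiter-Glo luminescence measured ATP; IC50 derived by 4-parameter fit.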

HT-29 tumor cells = experiment: Cell growth inhibition assay (CellTiter-Glo), HT-29; type: cell-based, Human; details: Homo sapiens
Outline: as §1

T1 sequence (P04626 23-1255): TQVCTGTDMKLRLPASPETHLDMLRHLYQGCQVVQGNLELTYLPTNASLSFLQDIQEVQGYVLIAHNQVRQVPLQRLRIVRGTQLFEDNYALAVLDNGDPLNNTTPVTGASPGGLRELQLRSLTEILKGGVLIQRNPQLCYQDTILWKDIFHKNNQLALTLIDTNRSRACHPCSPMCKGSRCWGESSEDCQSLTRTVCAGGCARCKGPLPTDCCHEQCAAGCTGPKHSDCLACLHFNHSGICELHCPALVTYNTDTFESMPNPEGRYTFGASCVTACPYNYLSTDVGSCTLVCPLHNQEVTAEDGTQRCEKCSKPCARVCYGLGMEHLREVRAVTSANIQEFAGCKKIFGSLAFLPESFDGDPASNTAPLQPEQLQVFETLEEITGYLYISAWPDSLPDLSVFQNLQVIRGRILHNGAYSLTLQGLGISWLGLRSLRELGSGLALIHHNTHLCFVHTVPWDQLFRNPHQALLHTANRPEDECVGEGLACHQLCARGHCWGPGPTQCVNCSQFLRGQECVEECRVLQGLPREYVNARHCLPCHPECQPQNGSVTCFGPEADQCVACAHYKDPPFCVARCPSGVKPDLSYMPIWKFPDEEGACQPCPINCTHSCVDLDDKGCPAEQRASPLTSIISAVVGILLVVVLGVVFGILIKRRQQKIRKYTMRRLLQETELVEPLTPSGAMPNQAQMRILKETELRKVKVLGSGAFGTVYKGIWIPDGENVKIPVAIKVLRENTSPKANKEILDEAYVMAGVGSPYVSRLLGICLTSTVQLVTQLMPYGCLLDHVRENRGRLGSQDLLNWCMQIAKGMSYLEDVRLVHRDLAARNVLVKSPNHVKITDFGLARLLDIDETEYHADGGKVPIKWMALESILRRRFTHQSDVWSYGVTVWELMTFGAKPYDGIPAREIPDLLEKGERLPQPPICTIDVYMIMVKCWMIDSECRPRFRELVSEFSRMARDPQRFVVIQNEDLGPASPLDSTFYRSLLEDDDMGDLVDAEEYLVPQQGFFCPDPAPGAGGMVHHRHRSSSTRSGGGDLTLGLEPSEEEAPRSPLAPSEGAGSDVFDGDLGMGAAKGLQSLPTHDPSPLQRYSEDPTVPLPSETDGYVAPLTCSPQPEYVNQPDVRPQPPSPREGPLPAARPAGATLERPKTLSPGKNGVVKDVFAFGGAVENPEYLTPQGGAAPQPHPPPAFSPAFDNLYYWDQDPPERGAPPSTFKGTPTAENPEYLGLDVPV

SMILES	IC50 (ErbB2) [nM]	IC50 (SK-MEL-28 tumor cells) [nM]	IC50 (SK-MEL-3 tumor cells) [nM]	IC50 (HT-29 tumor cells) [nM]
Cc1nc(-c2cccc(NS(=O)(=O)c3c(F)cccc3F)c2)c(-c2ccnc(Nc3ccc(N4CCOCC4)nc3)n2)s1 [Example 133]	> 1000	< 100	< 100	< 100
CS(=O)(=O)c1cccc(Nc2nccc(-c3sc(N4CCOCC4)nc3-c3cccc(NS(=O)(=O)c4c(F)cccc4F)c3Cl)n2)c1 [Example 145]	> 1000	< 100	< 100	< 100
O=S(=O)(Nc1cccc(-c2nc(N3CCOCC3)sc2-c2ccnc(Nc3ccc(N4CCOCC4)nc3)n2)c1Cl)c1c(F)cccc1F [Example 146]	> 1000	< 100	< 100	< 100
O=S(=O)(Nc1cccc(-c2nc(N3CCCCC3)sc2-c2ccnc(Nc3ccc(N4CCOCC4)nc3)n2)c1)c1c(F)cccc1F [Example 151]	> 1000	< 100	< 100	< 100
CCNc1nc(-c2cccc(NS(=O)(=O)c3c(F)cccc3F)c2)c(-c2ccnc(Nc3ccc(N4CCOCC4)nc3)n2)s1 [Example 152]	100 to 1000	< 100	< 100	< 100
O=S1(=O)Cc2ccc(Nc3nccc(-c4sc(N5CCOCC5)nc4-c4cccc(NS(=O)(=O)c5c(F)cccc5F)c4F)n3)cc2C1 [Example 155]	100 to 1000	< 100	< 100	< 100
COc1ccc(S(C)(=O)=O)cc1Nc1nccc(-c2sc(N3CCOCC3)nc2-c2cccc(NS(=O)(=O)c3c(F)cccc3F)c2F)n1 [Example 157]	> 1000	< 100	< 100	< 100
Cc1cc(Nc2nccc(-c3sc(C(C)(C)C)nc3-c3cccc(NS(=O)(=O)c4c(F)cccc4F)c3F)n2)ccn1 [Example 159]	100 to 1000	< 100	< 100	< 100
O=S(=O)(Nc1cccc(-c2ncsc2-c2ccnc(Nc3ccc(N4CCOCC4)nc3)n2)c1)c1c(F)cccc1F [Example 162]	> 1000	< 100	< 100	100 to 1000
CCNc1nc(-c2ccc(F)c(NS(=O)(=O)c3c(F)cccc3F)c2)c(-c2ccnc(Nc3ccc(N4CCOCC4)nc3)n2)s1 [Example 166]	< 100	< 100	100 to 1000	100 to 1000
CS(=O)(=O)CCN1CCN(c2ccc(Nc3nccc(-c4oc(N5CCCC5)nc4-c4cccc(NS(=O)(=O)c5c(F)cccc5F)c4F)n3)cc2F)CC1 [Example 167]	< 100	< 100	< 100	< 100
